According to publication PMC4026384, “Antibacterial Activity of THAM Trisphenylguanide against Methicillin-Resistant Staphylococcus aureus” (PLoS ONE, 2014):

Tests used:
all of the pathogens = experiment: MIC against all of the pathogens (LB); type: cell-based; settings: complex medium (LB), actively growing bacteria
Description: Minimum inhibitory concentration (MIC) values were determined for those compounds showing the most antibacterial activity in the bacterial viability assays (see Supplemental Materials) against each of the strains of bacteria using a microdilution method in 96 well plates with LB media according to guidelines published by the British Society for Antimicrobial Chemotherapy. Minimum bactericidal concentrations (MBC) were determined by plating 10 µL and 100 µL from each well showing no signs of growth after overnight incubation of the MIC plates and determining the minimum concentration showing a 3-log reduction of viable bacteria. MIC and MBC were also determined in cation-adjusted Mueller-Hinton broth (Hardy Diagnostics, Santa Maria, CA) for some compounds and strains.

Acanthamoeba castellanii = experiment: Toxicity against eukaryotic pathogen; type: cell-based; settings: data not shown
[1] = test system: HaCaT human keratinocytes; experiment: Cell toxicity assay (MTS); type: cell-based
[2] = test system: human breast cancer cell line MDA-MB-231; experiment: Cell toxicity assay (MTS); type: cell-based; settings: MDA-231
Balb/c mice = experiment: In vivo toxicity study (serum chemistry and enzyme levels); design: species or system mouse; settings: i.p. 0.1 ml of 10, 50, 100 µM, blood two hours post injection, versus mock-treated control
Description: THAM-3ΦG was chosen for the in vivo challenge experiments, because it had the best combination of antibacterial activity and low toxicity (Tables 1–3). In vivo toxicity studies were carried out prior to the start of experiments in mice challenged with MRSA. Groups of three Balb/c mice each were injected i.p. with 0.1 ml of 0, 10, 50, and 100 µM THAM-3ФG in PBS. The highest in vivo dose represented 0.36 mg/kg. Blood was drawn from the mice at two hours post injection and submitted for a standard panel of serum chemistry and enzyme levels. The chemistry and enzyme levels were not elevated for any of the concentrations tested compared to the mock-treated control group (data not shown).

Row | Compound | MIC (all of the pathogens) | IC50 (Acanthamoeba castellanii) | Relative to chlorhexidine (factor by which cytotoxicity was reduced) [1] | Relative to chlorhexidine (factor by which cytotoxicity was reduced) [2] | serum chemistry and enzyme levels (Balb/c mice)
1 | [H]/N=C(\N/C(=N/[H])NCCCCCCNC(=N)NC(=N)Nc1ccc(Cl)cc1)Nc1ccc(Cl)cc1 [Chlorhexidine, chlorhexidine, reference compound] | ≤ 16 µg/mL | ~10 µM | – | – | –
2 | N=C(NCCCCCCNc1nc(NCCCCCCNC(=N)Nc2ccccc2)nc(NCCCCCCNC(=N)Nc2ccccc2)n1)Nc1ccccc1 [THAM-3ΦG, Trishexylaminomelamine trisphenylguanide] | – | – | 7.1 | 3.0 | not elevated
